According to patent US10597388B2, “Pyridazinone herbicides” (FMC CORPORATION, priority 2014, dated 2020):

Key:
Format in all cases: in vivo
[1] = system: blackgrass (Alopecurus myosuroides); test: Test A greenhouse herbicide test, postemergence
Outline: (§1)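 Plants grown in loam soil/sand blend pots were treated postemergence at 2 to 10 cm height, one- to two-leaf stage, with formulated test chemicals. After approximately 10 d in a greenhouse, injury was rated visually against untreated controls on a 0 to 100 scale (0 no effect, 100 complete control).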

[2] = system: galium (catchweed bedstraw, Galium aparine); test: Test A greenhouse herbicide test, postemergence
Outline: as §1

[3] = system: barnyardgrass (Echinochloa crus-galli); test: Test C greenhouse herbicide test, pre- and postemergence
Outline: (§2)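 Two application timings: at sowing into a soil/sand blend, and on 2–18 cm seedlings in peat-vermiculite potting mix. A non-phytotoxic, surfactant-containing solvent carried the compounds. Plants were compared with controls and rated visually on 0–100 after 13–15 d.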

[4] = system: crabgrass, large (large crabgrass, Digitaria sanguinalis); test: as above
Outline: as §2

[5] = system: foxtail, giant (giant foxtail, Setaria faberii); test: as above
Outline: as §2

[6] = system: galium (catchweed bedstraw, Galium aparine); test: as above
Outline: as §2

[7] = system: johnsongrass (Sorghum halepense); test: as above
Outline: as §2

[8] = system: lambsquarters (Chenopodium album); test: as above
Outline: as §2

[9] = system: morningglory (Ipomoea coccinea); test: as above
Outline: as §2

[10] = system: oilseed rape (Brassica napus); test: as above
Outline: as §2

[11] = system: ragweed (common ragweed, Ambrosia elatior); test: as above
Outline: as §2

[12] = system: ryegrass, Italian (Italian ryegrass, Lolium multiflorum); test: as above
Outline: as §2

[13] = system: wheat (winter wheat, Triticum aestivum); test: as above
Outline: as §2

[14] = 125 g ai/ha, 0 to 100 scale where 0 is no effect and 100 is complete control
[15] = 500 g ai/ha, 0 to 100 scale, 0 is no effect, 100 is complete control
[16] = Postemergence, 31 g ai/ha, 0 to 100 scale (0 no effect, 100 complete control)
[17] = Postemergence, 125 g ai/ha, scale 0 to 100, 0 is no effect, 100 is complete control
[18] = Postemergence, 250 g ai/ha, scale 0 to 100, 0 no effect, 100 complete control, 13 to 15 d
[19] = Preemergence, 31 g ai/ha, scale 0 to 100, 0 is no effect, 100 is complete control
[20] = Preemergence, 62 g ai/ha, scale 0 to 100, 0 is no effect, 100 is complete control
[21] = Preemergence, 125 g ai/ha, scale 0 to 100, 0 is no effect, 100 is complete control
[22] = Preemergence, 250 g ai/ha, scale 0 to 100, 0 no effect, 100 complete control
[23] = postemergence, 62 g ai/ha, scale 0 to 100, 0 no effect, 100 complete control

With `Cc1ccc2sc(Br)c(-c3c(O)c(C)nn(C)c3=O)c2c1` [Compound 79] the “Plant response rating, Blackgrass” value [1, 14] was 70, the “Blackgrass plant response rating” value [1, 15] was 80 and the “Plant response rating, Galium” value [2, 14] was 90. For the same molecule, the “Galium plant response rating” value [2, 15] was 90, the “Barnyardgrass plant response rating” value [3, 16] was 20 and the “Plant response rating, Barnyardgrass” value [3, 17] was 30. For the same molecule, the “Plant response rating, Barnyardgrass” value [3, 18] was 40, the “Plant response rating, Barnyardgrass” value [3, 19] was 10 and the “Plant response rating, Barnyardgrass” value [3, 20] was 15. For the same molecule, the “Plant response rating, Barnyardgrass” value [3, 21] was 65, the “Barnyardgrass plant response rating” value [3, 22] was 85 and the “Barnyardgrass plant response rating” value [3, 23] was 25. For the same molecule, the “Crabgrass, Large plant response rating” value [4, 16] was 20, the “Plant response rating, Crabgrass, Large” value [4, 17] was 30 and the “Plant response rating, Crabgrass, Large” value [4, 18] was 35. The “Plant response rating, Crabgrass, Large” value [4, 19] was 25, the “Plant response rating, Crabgrass, Large” value [4, 20] was 25 and the “Plant response rating, Crabgrass, Large” value [4, 21] was 20. For the same molecule, the “Crabgrass, Large plant response rating” value [4, 22] was 30, the “Crabgrass, Large plant response rating” value [4, 23] was 25 and the “Foxtail, Giant plant response rating” value [5, 16] was 35. The “Plant response rating, Foxtail, Giant” value [5, 17] was 75, the “Plant response rating, Foxtail, Giant” value [5, 18] was 90 and the “Plant response rating, Foxtail, Giant” value [5, 19] was 65. The “Plant response rating, Foxtail, Giant” value [5, 20] was 85, the “Plant response rating, Foxtail, Giant” value [5, 21] was 85 and the “Foxtail, Giant plant response rating” value [5, 22] was 95. The “Foxtail, Giant plant response rating” value [5, 23] was 60, the “Galium plant response rating” value [6, 16] was 95 and the “Plant response rating, Galium” value [6, 17] was 95. For the same molecule, the “Plant response rating, Galium” value [6, 18] was 95, the “Plant response rating, Galium” value [6, 19] was 95 and the “Plant response rating, Galium” value [6, 20] was 95. For the same molecule, the “Plant response rating, Galium” value [6, 21] was 95, the “Galium plant response rating” value [6, 22] was 98 and the “Galium plant response rating” value [6, 23] was 95. The “Johnsongrass plant response rating” value [7, 16] was 5, the “Plant response rating, Johnsongrass” value [7, 17] was 10 and the “Plant response rating, Johnsongrass” value [7, 18] was 10. For the same molecule, the “Plant response rating, Johnsongrass” value [7, 19] was 10, the “Plant response rating, Johnsongrass” value [7, 20] was 35 and the “Plant response rating, Johnsongrass” value [7, 21] was 40. The “Johnsongrass plant response rating” value [7, 22] was 30, the “Johnsongrass plant response rating” value [7, 23] was 5 and the “Lambsquarters plant response rating” value [8, 16] was 85. The “Plant response rating, Lambsquarters” value [8, 17] was 98, the “Plant response rating, Lambsquarters” value [8, 18] was 100 and the “Plant response rating, Lambsquarters” value [8, 19] was 100. The “Plant response rating, Lambsquarters” value [8, 20] was 95, the “Plant response rating, Lambsquarters” value [8, 21] was 100 and the “Lambsquarters plant response rating” value [8, 22] was 100. The “Lambsquarters plant response rating” value [8, 23] was 95, the “Morningglory plant response rating” value [9, 16] was 100 and the “Plant response rating, Morningglory” value [9, 17] was 100. The “Plant response rating, Morningglory” value [9, 18] was 98, the “Plant response rating, Morningglory” value [9, 19] was 90 and the “Plant response rating, Morningglory” value [9, 20] was 95. The “Plant response rating, Morningglory” value [9, 21] was 98, the “Morningglory plant response rating” value [9, 22] was 98 and the “Morningglory plant response rating” value [9, 23] was 100. The “Oilseed Rape plant response rating” value [10, 16] was 20, the “Plant response rating, Oilseed Rape” value [10, 17] was 70 and the “Plant response rating, Oilseed Rape” value [10, 18] was 80. For the same molecule, the “Plant response rating, Oilseed Rape” value [10, 19] was 0, the “Plant response rating, Oilseed Rape” value [10, 20] was 35 and the “Plant response rating, Oilseed Rape” value [10, 21] was 30. The “Oilseed Rape plant response rating” value [10, 22] was 30, the “Oilseed Rape plant response rating” value [10, 23] was 25 and the “Ragweed plant response rating” value [11, 16] was 90. For the same molecule, the “Plant response rating, Ragweed” value [11, 17] was 98, the “Plant response rating, Ragweed” value [11, 18] was 98 and the “Plant response rating, Ragweed” value [11, 19] was 90. The “Plant response rating, Ragweed” value [11, 20] was 95, the “Plant response rating, Ragweed” value [11, 21] was 98 and the “Ragweed plant response rating” value [11, 22] was 100. The “Ragweed plant response rating” value [11, 23] was 95, the “Ryegrass, Italian plant response rating” value [12, 16] was 50 and the “Plant response rating, Ryegrass, Italian” value [12, 17] was 85. The “Plant response rating, Ryegrass, Italian” value [12, 18] was 85, the “Plant response rating, Ryegrass, Italian” value [12, 19] was 20 and the “Plant response rating, Ryegrass, Italian” value [12, 20] was 90. The “Plant response rating, Ryegrass, Italian” value [12, 21] was 90, the “Ryegrass, Italian plant response rating” value [12, 22] was 90 and the “Ryegrass, Italian plant response rating” value [12, 23] was 60. The “Wheat plant response rating” value [13, 16] was 0, the “Plant response rating, Wheat” value [13, 17] was 0 and the “Plant response rating, Wheat” value [13, 18] was 0. The “Plant response rating, Wheat” value [13, 19] was 0, the “Plant response rating, Wheat” value [13, 20] was 0 and the “Plant response rating, Wheat” value [13, 21] was 0. For the same molecule, the “Wheat plant response rating” value [13, 22] was 0 and the “Wheat plant response rating” value [13, 23] was 0.
